Target: Alpha-glucosidase MAL32 (Saccharomyces cerevisiae, UniProt P38158)
Assay: α-Glucosidase Inhibition Assay
Conditions: pH 6.8; 37 °C
Description: For α-glucosidase inhibition assay, α-glucosidase enzyme (Cat No. 5003-1KU Type I; isolated from Saccharomyces cereviciae) was used. Acarbose was the reference standard and Pierre's methodology was employed [Pierre et al., J. Clin. Chem., 24:208-211]. First absorbance was taken at 400 nm after the 10 min incubation of a mixture of phosphate buffer ([…], pH 6.8), test compound ([…], 0.5 mM) and enzyme ([…], 0.0234 units, Sigma Inc.). Later, […] of p-nitrophenyl-α-D-glucopyranoside (0.5 mM, code No. N1377 from Sigma Inc) was added. After 30 min incubation at 37 °C, the absorbance was retaken at 400 nm.

Alpha-glucosidase MAL32, sequence (P38158 whole entry): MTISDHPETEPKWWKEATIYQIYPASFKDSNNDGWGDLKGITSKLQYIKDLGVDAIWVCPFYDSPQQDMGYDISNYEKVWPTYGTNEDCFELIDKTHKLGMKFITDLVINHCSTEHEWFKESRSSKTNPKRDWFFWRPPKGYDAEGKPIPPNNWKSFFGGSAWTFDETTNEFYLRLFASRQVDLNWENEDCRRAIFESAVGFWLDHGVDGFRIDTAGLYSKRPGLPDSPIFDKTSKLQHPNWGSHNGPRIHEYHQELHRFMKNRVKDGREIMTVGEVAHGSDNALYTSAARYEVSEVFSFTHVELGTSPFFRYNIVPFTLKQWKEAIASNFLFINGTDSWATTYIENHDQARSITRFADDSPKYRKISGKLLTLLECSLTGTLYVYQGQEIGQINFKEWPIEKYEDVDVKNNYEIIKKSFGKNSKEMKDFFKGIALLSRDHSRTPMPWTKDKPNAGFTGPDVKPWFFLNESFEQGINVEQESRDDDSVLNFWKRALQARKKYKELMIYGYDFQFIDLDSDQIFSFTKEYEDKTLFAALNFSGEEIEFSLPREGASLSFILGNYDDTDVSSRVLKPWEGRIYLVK

Compound	IC50 [µM]
O=c1oc2ccc(Br)cc2cc1-c1nn(-c2ccccc2)cc1-c1nc(-c2ccccc2)c(-c2ccccc2)n1-c1ccc(Cl)cc1 [6-Bromo-3-(4-(1-(4-chlorophenyl)-4,5-diphenyl-1H-imidazol-2-yl)-1-phenyl-1H-pyrazol-3-yl)-2H-chromen-2-one (3f)]	2.53
COc1ccc(-n2c(-c3cn(-c4ccccc4)nc3C3=CC4C=CC=CC4OC3=O)nc(-c3ccccc3)c2-c2ccccc2)cc1 (stereo not given) [3-(4-(1-(4-Methoxyphenyl)-4,5-diphenyl-1H-imidazol-2-yl)-1-phenyl-1H-pyrazol-3-yl)-4a,8a-dihydro-2H-chromen-2-one (3c)]	25.4
Cc1cc(C)cc(-n2c(-c3cn(-c4ccccc4)nc3C3=CC4C=CC=CC4OC3=O)nc(-c3ccccc3)c2-c2ccccc2)c1 (stereo not given) [3-(4-(1-(3,5-Dimethylphenyl)-4,5-diphenyl-1H-imidazol-2-yl)-1-phenyl-1H-pyrazol-3-yl)-4a,8a-dihydro-2H-chromen-2-one (3d)]	46.4
O=C1OC2C=CC=CC2C=C1c1nn(-c2ccccc2)cc1-c1nc(-c2ccccc2)c(-c2ccccc2)n1-c1ccc(Br)cc1 (stereo not given) [3-(4-(1-(4-Bromophenyl)-4,5-diphenyl-1H-imidazol-2-yl)-1-phenyl-1H-pyrazol-3-yl)-4a,8a-dihydro-2H-chromen-2-one (3b)]	34.3
O=C1OC2C=CC=CC2C=C1c1nn(-c2ccccc2)cc1-c1nc(-c2ccccc2)c(-c2ccccc2)n1-c1ccc(Cl)cc1 (stereo not given) [3-(4-(1-(4-Chlorophenyl)-4,5-diphenyl-1H-imidazol-2-yl)-1-phenyl-1H-pyrazol-3-yl)-4a,8a-dihydro-2H-chromen-2-one (3a)]	12.7
Cc1ccc(-n2c(-c3cn(-c4ccccc4)nc3-c3cc4cc(Br)ccc4oc3=O)nc(-c3ccccc3)c2-c2ccccc2)cc1 [6-Bromo-3-(4-(4,5-diphenyl-1-(p-tolyl)-1H-imidazol-2-yl)-1-phenyl-1H-pyrazol-3-yl)-2H-chromen-2-one (3i)]	5.83

The next lines start with the values.

IC50 [µM]	Compound
9.27	COc1ccc(-n2c(-c3cn(-c4ccccc4)nc3-c3cc4cc(Br)ccc4oc3=O)nc(-c3ccccc3)c2-c2ccccc2)cc1 [6-Bromo-3-(4-(1-(4-methoxyphenyl)-4,5-diphenyl-1Himidazol-2-yl)-1-phenyl-1H-pyrazol-3-yl)-2H-chromen-2-one (3h)]
5.21	O=c1oc2ccc(Br)cc2cc1-c1nn(-c2ccccc2)cc1-c1nc(-c2ccccc2)c(-c2ccccc2)n1-c1ccc(Br)cc1 [6-Bromo-3-(4-(1-(4-bromophenyl)-4,5-diphenyl-1H-imidazol-2-yl)-1-phenyl-1H-pyrazol-3-yl)-2H-chromen-2-one (3j)]
5.64	Cc1cc(C)cc(-n2c(-c3cn(-c4ccccc4)nc3C3=CC4C=C(Br)C=CC4OC3=O)nc(-c3ccccc3)c2-c2ccccc2)c1 (stereo not given) [6-Bromo-3-(4-(1-(3,5-dimethylphenyl)-4,5-diphenyl-1Himidazol-2-yl)-1-phenyl-1H-pyrazol-3-yl)-4a,8a-dihydro-2Hchromen-2-one (3g)]
44.8	CCCn1c(-c2cn(-c3ccccc3)nc2C2=CC3C=CC=CC3OC2=O)nc(-c2ccccc2)c1-c1ccccc1 (stereo not given) [3-(4-(4,5-Diphenyl-1-propyl-1H-imidazol-2-yl)-1-phenyl-1Hpyrazol-3-yl)-4a,8a-dihydro-2H-chromen-2-one (3e)]

Reference: BindingDB's records for doi:10.1016/j.bioorg.2017.05.009 (Kinnaird College for Women, 2017)
